Test results as given in US20260327233A1, “Heteroaryl Compounds as Ligand Directed Degraders of IRAK4” (Celgene Corporation, priority 2023, published 2026).

How the values were obtained:
IRAK4 [1] = target: T1, IRAK4 (Homo sapiens, UniProt Q9NWZ3); assay: IRAK4 PhosphoSens Biochemical Assay (BIOCHEM); conditions: IRAK4 1 nM; ATP and Sox conjugated peptide substrate AQT0326; pH 7.5; room temperature; 240 minutes
T1 sequence (Q9NWZ3 1-460): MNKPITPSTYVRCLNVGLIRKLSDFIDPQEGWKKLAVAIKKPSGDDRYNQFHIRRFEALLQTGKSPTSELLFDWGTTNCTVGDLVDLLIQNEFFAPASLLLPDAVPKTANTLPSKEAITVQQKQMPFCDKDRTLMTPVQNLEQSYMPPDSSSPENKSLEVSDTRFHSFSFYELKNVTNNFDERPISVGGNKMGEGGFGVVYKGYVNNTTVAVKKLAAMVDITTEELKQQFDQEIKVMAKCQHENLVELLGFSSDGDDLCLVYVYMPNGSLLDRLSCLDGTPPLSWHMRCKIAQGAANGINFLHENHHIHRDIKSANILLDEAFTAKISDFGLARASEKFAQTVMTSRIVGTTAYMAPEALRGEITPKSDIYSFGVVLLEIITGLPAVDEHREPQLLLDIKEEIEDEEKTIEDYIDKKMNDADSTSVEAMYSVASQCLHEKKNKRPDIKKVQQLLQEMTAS
Method: The PhosphoSens® biochemical assay was performed as described by the vendor (AssayQuant Technologies Inc. Marlborough, MA). A 1.25× stock solution of IRAK4 (PV4002, ThermoFisher Scientific, Waltham, MA) and a 5× stock solution of ATP and Sox conjugated peptide substrate, AQT0326 (CSKS-AQT0326B, AssayQuant Technologies), were prepared in 1× kinase reaction buffer consisting of 50 mM HEPES, pH 7.5, 0.01% Brij-35, 0.5 mM EGTA, 20 mM MgCl2 and 1 mM DTT. 10 μL of the ATP and substrate solution mix, for a final concentration of 200 µM ATP and […] peptide substrate, was added to a Corning 3574 384-well, white, non-binding surface microtiter plate containing 0.5 μL of serially diluted test compounds prepared in DMSO. The reactions were started with the addition of 40 μL of the enzyme solution, for a final IRAK4 concentration of 1 nM, and monitored every 71 seconds for 240 minutes at λEX 360/λEM 485 in a BioTek Synergy H4 plate reader (Agilent Technologies, Santa Clara, CA) at room temperature. The initial linear portions of the progress curves were fit according to a linear equation to yield the slopes and converted to % inhibition based on a value of 100% activity for the no inhibitor treated control. IC50 values of each compound were obtained by fitting the % inhibition-compound concentration curves using Dotmatics software (Dotmatics, Bishops Stortford, Hertfordshire, England),

IRAK4 [2] = target: T1, IRAK4; assay: ALE THP1 HTRF (IRAK4 HTRF in THP1 cell lysate, Cisbio HTRF kit); assay type: cell-based; design: THP1 Homogeneous Time Resolved Fluorescence (ALE THP1 HTRF) Procedure; endogenous in cells; host or cells: THP1; conditions: anti-IRAK4 d2 / anti-IRAK4 k antibodies
Method: Cell culture media was prepared in a tissue culture hood in a sterile environment by adding 10% FBS and 1% Penicillin Streptomycin to 500 mL no phenol red RPMI 1640 media. The media was filtered through a Nalgene Bottle Top Filter and stored at 4° C.
For Homogenous Time Resolved Fluorescence (HTRF) assays, a Cisbio HTRF kit was used, which included: Lysis Buffer #1 4×, Blocking Reagent #3 100×, 20× Antibody 1 (Anti-IRAK4 d2), 20× Antibody 2 (Anti-IRAK4 k), and Detection Buffer.
4× Lysis Buffer was stored at 4° C. For use as 1× Lysis buffer, the 4× solution was diluted with de-ionized water (distilled water, Gibco Cat. #15230279) and 100× Blocking Reagent in a 1:3:0.04 volume ratio.
20× Antibody Solution aliquots were stored at −80° C. and the Detection Buffer was stored at 4° C. For use as a 1× Antibody Solution, the 20× Antibody Solution aliquot was diluted with Detection Buffer in a 1:19 volume ratio.
Cells were lysed at room temperature for 45 min with shaking. A BCA protein assay was performed and normalization was conducted to the desired total protein concentration with 1× lysis buffer. Next, 1× Antibody Solutions were prepared by adding 380 μL Detection Buffer to 20 μL 20× Antibody Solution aliquots and mixing well. 1× Antibody Solutions were combined 1:1 and briefly vortexed. For control wells, 20 μL 1× anti IRAK4-k Antibody Solution was saved. The 384-well plate (ProxiPlate-384 Plus, Perkin Elmer Cat. #6008289) was loaded by adding 4 μL of the mixed Antibody Solution to empty wells using a single channel repeater. Using a multi-channel repeater, 16 μL lysate was added per well, and any bubbles that were formed were popped with 20 μL pipette tips and Kimwipe edges. In column 10, triplicates of each control were prepared. In wells A10, B10, and C10, buffer control was prepared by adding 16 μL Lysis Buffer and 4 μL Detection Buffer. In wells D10, E10, and F10, cryptate control was prepared by adding 16 μL Lysis Buffer, 2 μL Detection Buffer, and 2 μL 1× anti-IRAK4-k Antibody Solution. In wells G10, H10, and 110, a negative control was prepared by adding 16 μL Lysis Buffer and 4 μL mixed Antibody Solution. The plate was sealed with a clear seal and covered with an aluminum lid. The plate was spun down at 800 g for 5 min and incubated in the dark at room temperature overnight. The next day, the plate was spun down at 800 g for 5 min. The samples were analyzed by a plate reader (Envision, PerkinElmer) using the Desnor 384 HTRF program.

Q: `N[C@@H]1C[C@@H](F)CN(c2ccn3ncc(C(=O)Nc4cn(C5CCN(CCN6CCN(c7ccc8c(c7)CN(C7CCC(=O)NC7=O)C8=O)CC6)CC5)nc4C(F)F)c3n2)C1` (stereo partly drawn) [Compound P-38, N-[3-(difluoromethyl)-1-[1-[2-[4-[2-(2,6-dioxo-3-piperidyl)-1-oxo-isoindolin-5-yl]piperazin-1-yl]ethyl]-4-piperidyl]pyrazol-4-yl]-5-[(3R,5R)-3-amino-5-fluoro-1-piperidyl]pyrazolo[1,5-a]pyrimidine-3-carboxamide] was tested. Which IC50 (IRAK4 [1]) did it give?
A: < 0.5 nM

Q: What about the EC50 (IRAK4 [2]) of the same compound?
A: 6 nM

Q: And the “ALE THP1 HTRF YMIN” value (IRAK4 [2]; YMIN)?
A: 10%
